The structures appear in SMILES notation. Converted amounts (≈) assume the structure as drawn. “And” between values parts separate entries of the source, which are not always exact repeats. Equal values may be shown once. “Also recorded” adds a separate entry of the source.

The test system of one assay is VEGF. The note with it: HUVEC, 24 h, immunoblot; listed as LI51255. As to the method: Equal number of HUVEC human primary endothelial cells was plated in 35 mm culture dishes. The cells exposed to either 0.5% DMSO as vehicle or LI-51255 for 24 h. The cells were lysed in cell lysis buffer. The protein concentration of each lysate was determined by the BCA method (BioRad, Hercules, Calif.). Equal amount of cell lysates proteins was resolved in SDS-PAGE and the transferred proteins on nitrocellulose membrane were reacted with human anti-VEGF antibody (Cell Signaling Technology, Beverly, Mass.) overnight at 4° C. Immunoreactive proteins were detected using were developed with Super SignalWest Pico Chemiluminescent substrate (Pierce Biotechnology Inc.) and the band intensities were analyzed using Molecular Imaging Software, version 4.0 (Eastman Kodak Company, Rochester, N.Y.). Relative density was determined by normalization of the density of each blot with that of corresponding β-actin.
A general note: In western blotting, separated proteins are transferred to a membrane and probed.

Another assay concerns MCF-7. Nature of the assay: MTT cell proliferation assay, MCF-7. In kind it is cell-based, human. The following applies: Table 4. The procedure, abridged:
(§1)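 Cells exposed three days to compounds at concentrations up to 10 μg/ml (≤0.5% DMSO), then 0.5 mg/ml MTT for 4 h at 37 °C. Solubilized formazan read at 540 nm; IC50 calculated from quadruplicate wells.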
(Tetrazolium assays rely on reduction of a dye to a coloured formazan, in cell work by metabolically active cells.)

For assay [1], the system named is MDA-MB-231. Nature of the assay: MDA-MB-231 clone (colony) formation in vitro. In kind it is cell-based, human. The note with it: 1.0, 1.5, 2.0, 2.5 μg/ml, 8 days. The method, then: Inhibitory efficacy in clone formation of LI-51255 was tested by following the procedure described earlier with some modifications (Wu et al. 2005). Briefly, MDA-MB-231 cells were harvested and seeded into 6-well plates (100 cells/ml). The cells were allowed to grow for 4 days and thereafter, the cells were incubated with DMEM containing either 0.5% DMSO or 25 μg/ml AKBA or different concentrations (1.0, 1.5, 2.0, 2.5 μg/ml) of LI-51255 for further 8 days. Fresh medium containing test agents was replaced at every 24 h. Finally, the wells were washed three times with PBS and fixed in methanol for 15 min. The cells were stained with Giemsa stain and observed under microscope. The image of the stained wells were captured digitally (Kodak Image Station 4000MM, Carestream Health Inc., New Haven, Conn.) and number of colonies were counted and analyzed by using NIH Image J software.

The subject of assay [2] is B16 murine melanoma cells. Description: Cell cycle analysis by flow cytometry. Format: cell-based. The following applies: 24 h. The method, then:
For flow cytometry, cells were harvested after the treatment period, washed with phosphate buffered saline (PBS), and adjusted the cell count at 2×10^6 cells per milliliter. The cells were fixed in 70% ethanol for 30 min at 4° C. Cells were then washed two times with PBS and stained with 0.5 μg/ml propidium iodide at 37° C. for 30 min and analyzed by flow cytometry. Data were acquired on a FACS Scan flow cytometer (Becton Dickinson) and analyzed by using the Cellquest software.
(In general: In flow cytometry, cells or beads pass a laser one at a time.)

Assay [3] deals with B16 F0 melanoma xenograft. Description: B16 F0 melanoma xenograft model. In kind it is in vivo, C57B6J mice. The note with it: twelve days; for % reduction of tumor burden (w.r.t control): listed as LI-51255. The method, then: In vivo efficacy of LI-51255 against melanoma growth was evaluated in B16 F0 melanoma xenograft model of C57B6J mice. C57B6J mice of 6 weeks age (body weight 18-22 g) were purchased from National Institute of Nutrition (NIN), Hyderabad (India). Animals study protocols were approved by Institutional Ethics Committee (IAEC). All the studies were performed in compliance with the Committee for the Purpose of Control and Supervision of Experiments on Animals (CPCSEA) guidelines and OECD guidelines. Animals were allowed free access to standard feed and provided charcoal filtered and UV exposed water ad libitum. The animals were maintained at a controlled temperature (24-26° C.), humidity (45-70%), and 12 h/12 h of light/dark cycle.
To induce the melanoma tumor formation, sub-confluent B16F0 cells were harvested by brief trypsinization and 1×10^6 cells were injected subcutaneously in 0.2 mL phosphate-buffered saline. Drug treatment was started after development of palpable tumors (3-5 days after implantation of the cells). Drugs were prepared in phosphate-buffered saline (10% DMSO, v/v) and either 75 mg/kg of DTIC or different doses of LI-51255 (10 or 20 mg/kg) was administered daily through intra-peritoneal route. Vehicle treated control animals received only 10% DMSO in phosphate buffered saline. After twelve days of treatment, the animals were sacrificed by CO2 inhalation and tumors were excised and weighed.

For assay [4], the system named is MDA-MB-231. Description: MTT cell proliferation assay, MDA-MB-231. Format: cell-based, human. The following applies: Table 4. The gist of the method: as §1
Another assay has as its system AKT pathway. Description: AKT pathway western immunoblot in MDA-MB-231 cells. Format: cell-based, human. The following applies: MDA-MB-231, 10 μg/ml, 0-240 min. The method, then: Equal number of MDA-MB-231 human breast tumor cells (ER-) was plated in 25 cm^2 cell culture flasks. The cells treated with either 0.5% DMSO as vehicle or 10 μg/ml of LI-51255 for 0, 5, 10, 20, 30, 60, 120 and 240 min. The cells were lysed in cell lysis buffer.

In assay [5] the test system is Human umbilical vein endothelial cells (HUVEC). Nature of the assay: In vitro capillary-like tube formation assay. Format: cell-based. The following applies: HUVEC on Cultrex, 1, 2.5 and 5 μg/ml, 16 h. The method, then:
In vitro capillary formation assay was performed with Human umbilical vein endothelial cells (HUVEC), cultured on 10 mg/ml basement membrane extract (BME—Cultrex®, R&D Systems, USA) bed. The protocol of in vitro endothelial tube formation assay was the same as described earlier with some modifications (Reference). Briefly, four hundred microliters of Cultrex was coated at 4° C. in each well of 24-well culture plate and allowed to gel at 37° C. for 1 h. HUVECs were plated at a density of 7.5×10^4 cells per well with 400 μl of DMEM supplemented with 10% fetal bovine serum and 4.5 g/l D-glucose. The cells were then treated with either 0.5% DMSO or different concentrations of LI-51255 for 16 hours. Pictures were taken under a Nikon Eclipse TS 100 microscope equipped with a Nikon Coolpix camera (FIG. 1B).

For the next assay, the system named is A549. Description: MTT cell proliferation assay, A549. Format: cell-based, human. The following applies: Homo sapiens, A549; read-out: Inhibition of cell proliferation (IC50). As to the method: (§2) MTT [3-(4,5-dimethylthiazol-2-yl)-2,5-diphenyltetrazolium bromide] incorporation based cell proliferation assay was performed as described previously (Reference). The cytotoxic efficacy of some analogs was evaluated in different cell lines by MTT cell proliferation assay kit (Roche Applied Sciences, Germany). The assay was carried out according to the instruction provided by the vendor. Briefly, in brief, equal numbers of cells was plated in 96-well flat-bottomed plates in 100 μl of medium and were exposed to different analogs selected from 1 to 63 at various concentrations up to 10 μg/ml for a period of three days. Vehicle control culture wells received only a maximum of 0.5% DMSO. Thereafter, 0.5 mg/ml of MTT reagent was added to each well and the microplate was incubated further for 4 h at 37° C. in presence of 5% CO2. Finally, the cells were solubilized by adding solubilizing solution and allowed to incubate at 37° C. overnight. After complete solubilization of the formazan crystals the absorbance was read at 540 nm in a microplate reader (BioRad, USA). The results (mean OD±SD) obtained from quadruplicate wells were used in calculation to determine the inhibition of cell proliferation (50% of inhibitory concentration, IC50) of the test compounds.

For the next assay, the system named is A2058. Description: In vitro antitumor activity, A2058. In kind it is cell-based. The note with it: Homo sapiens, read-out: Inhibition of cell proliferation (IC50). As to the method: as §2, with “USA).” for “USA). The results (mean OD±SD) obtained from quadruplicate wells were used in calculation to determine the inhibition of cell proliferation (50% of inhibitory concentration, IC50) of the test compounds.”

The next assay concerns SKBR3. Nature of the assay: In vitro antitumor activity, SKBR3. Format: cell-based. The note with it: Homo sapiens, SK-BR-3, read-out: Inhibition of cell proliferation (IC50). The method, then: as §2, with “USA).” for “USA). The results (mean OD±SD) obtained from quadruplicate wells were used in calculation to determine the inhibition of cell proliferation (50% of inhibitory concentration, IC50) of the test compounds.”

The subject of the next assay is DU145. Description: In vitro antitumor activity, DU145. Format: cell-based. The following applies: Homo sapiens, DU-145, read-out: Inhibition of cell proliferation (IC50). The method, then:
as §2, with “USA).” for “USA). The results (mean OD±SD) obtained from quadruplicate wells were used in calculation to determine the inhibition of cell proliferation (50% of inhibitory concentration, IC50) of the test compounds.”

The subject of a further assay is HT-29. Description: In vitro antitumor activity, HT-29. Format: cell-based. The following applies: Homo sapiens, read-out: Inhibition of cell proliferation (IC50). As to the method: as §2, with “USA).” for “USA). The results (mean OD±SD) obtained from quadruplicate wells were used in calculation to determine the inhibition of cell proliferation (50% of inhibitory concentration, IC50) of the test compounds.”

Another assay has as its system B16. Description: MTT cell proliferation assay, B16. The following applies: Mus musculus, B16; read-out: Inhibition of cell proliferation (IC50). Format: cell-based, mouse. As to the method: as §2
The subject of a further assay is A375. Nature of the assay: MTT cell proliferation assay, A375. Format: cell-based, human. The following applies: Homo sapiens, A-375; A375; read-out: Inhibition of cell proliferation (IC50). As to the method: as §2
Setting [6] is: 10 mg/kg daily intra-peritoneal.
The mark [7] stands for this setting: 20 mg/kg daily intra-peritoneal.

On to `CC(=O)OC1CC[C@@]2(C)C(CC[C@]3(C)C2C(=O)C=C2C4[C@@H](C)[C@H](C)CC[C@]4(C)CC[C@]23C)[C@@]1(C)C(=O)NCCN` (stereo partly drawn) [Analog 21, N-(3-O-Acetyl-11-keto-[beta]-boswelloyl)-ethylenediamine], for which the VEGF protein expression result in the assay on VEGF is on record as “strongly inhibited”. Also, the “IC50 values MCF-7” value with MCF-7 is 12.98 µg/mL (≈ 23.4 µM). For the same compound, the MDA-MB-231 colony formation result in the assay with MDA-MB-231 [1] (listed as LI-51255) is “potentially inhibits the growth and development; also recorded: inhibition of MDA-MB-231 colony formation”. Moreover, in assay [2], the “cell cycle progression” value was “arrests the growth of B16 murine melanoma cells at the subG1 phase”. In [2] (LI-51255 5 (mg/ml)), the G1 is recorded as 74.74, the G2/M came out at 12.2, the S stood at 11.18 and the “Sub G1” value amounted to 1.7. Further, in assay [2] (LI-51255 10 (mg/ml)), the G1 worked out at 60.25, the G2/M stood at 9.19, the S worked out at 10.87 and the “Sub G1” value amounted to 19.76. Besides, in assay [3] (setting [6]), the “Average weight of tumor” value stood at 4.575 gm; the “% reduction of tumor burden (w.r.t control)” value is 27.25% and 27.253%. Further, in assay [3] (setting [7]), the “Average weight of tumor” value is 3.050 gm; the “% reduction of tumor burden (w.r.t control)” value is 51.5% and 51.502%. Moreover, the “IC50 values MDA-MB-231” value in the assay with MDA-MB-231 [4] came to 3.45 µg/mL (≈ 6.22 µM). Further, in the assay with AKT pathway, the AKT protein expression result is recorded as “remains the same” and the “phospho-raf (ser 259) expression” value is listed as “up-regulation”. Besides, the “phosphorylated AKT (ser 473) protein expression” value in the assay on AKT pathway (listed as LI-51255) was “deactivates AKT pathway; also recorded: time dependent down regulation”. Moreover, the capillary-like tube formation result in [5] (listed as LI-51255) is on record as “dose-dependent inhibition; also recorded: inhibits capillary-like tube formation”.
Take `CC(=O)O[C@@H]1CC[C@@]2(C)C(CC[C@]3(C)C2C(=O)C=C2C4[C@@H](C)[C@H](C)CC[C@]4(C)CC[C@]23C)[C@@]1(C)C(=O)NCCN` (stereo partly shown) [Analog 21]: the IC50 is 13 µg/mL (≈ 23.4 µM) in the assay with MCF-7 (Homo sapiens, MCF7); 6.83 µg/mL (≈ 12.3 µM) with A549; 3.59 µg/mL (≈ 6.47 µM) in the assay on A2058; 5.3 µg/mL (≈ 9.55 µM) with SKBR3; 4.24 µg/mL (≈ 7.64 µM) with DU145; 3.45 µg/mL (≈ 6.22 µM) with MDA-MB-231 [4] (Homo sapiens, MDA-MB-231). Also, the IC50 with HT-29 is 8.87 µg/mL (≈ 16 µM); in the assay on B16, 4.35 µg/mL (≈ 7.84 µM); in the assay with A375 it was 3.53 µg/mL (≈ 6.36 µM). For the same compound, the MDA-MB-231 colony formation result in the assay on MDA-MB-231 [1] is reported as “potent inhibition of clone formation”. Besides, the “cell cycle progression” value in assay [2] was “interrupts cell cycle progression at sub G1 phase”. In addition, in the assay with AKT pathway, the “phosphorylated AKT (ser 473) protein expression” value is recorded as “down regulating AKT phosphorylation”. For the same compound, the capillary-like tube formation result in [5] is reported as “dose dependent inhibition”.

For the origin of these results see US8748598B2, “Analogs of 3-O-acetyl-11-keto-beta-boswellic acid” (Laila Nutraceuticals, priority 2004, dated 2014).
